Entries after “also recorded” stand apart in the source; their conditions may differ.

In one assay the test system is male C57BL/6J mice. Description: Pyruvate tolerance test (PTT). It counts as in vivo. Conditions: 60 mg/kg SQ twice; for blood glucose excursion / hepatic glucose production in PTT: 6 h fast, 60 mg/kg. As to the method:
On the day of testing, mice were fasted for 6 h (from 9am to 3 pm). Mice were then given 2 g/kg sodium pyruvate via IP injection. Blood glucose was measured with an UltraTouch glucometer in time course over a 120-minute period.
Mice were treated with 2 doses of MLN4924 as described. After the second injection at 9 am, mice were fasted for 6 h from 9 am to 3 pm. Mice were injected intraperitoneally […] for PTT, and 0.5 U/kg insulin for ITT. Blood glucose was measured with a OneTouch Ultra glucose meter.

The test system of assay [1] is INS-1 832/13 rat pancreas β cells. Description: Insulin secretion assay in INS-1 832/13 cells. The format is cell-based. As to the method: Insulin secreted into the medium was measured, (c) Total remaining intracellular insulin was measured, (d) The % secreted insulin was the fraction of total medium insulin over the sum of insulin in the medium and cells. Results are from 3 independent experiments and expressed as mean ± SEM. Two-way ANOVA and Tukey post hoc test were used to calculate the p values.
INS-1 832/13 rat insulinoma cell line was purchased from Sigma-Aldrich (St. Louis, MO). Cells were cultured in 24-well plate in RPMI-1640 growth medium until 100% confluent. Cells were then treated with vehicle (DMSO) or 500 nM MLN4924 for 5 hrs. Cells were then incubated with 0.5 ml secretion assay buffer (SAB, 114 mM NaCl, 4.7 mM KCl, 1.2 mM KH2PO4, 1.16 mM MgSO4, 20 mM HEPES pH 7.2, 25.5 mM NaHCO3, 2.5 mM CaCl2, and 0.2% BSA) containing 2.5 mM glucose and either vehicle or 500 nM MLN4924 for 1 hr. This step was repeated once. Next, SAB containing 12 mM glucose (0.5 ml) was added to cells to stimulate insulin secretion for 1 hr. The SAB was then collected and cells were lysed in 0.2 ml 1X RIPA buffer. Insulin concentration in SAB and cell lysates was measured with an ELISA assay kit.

Assay [2] concerns primary mouse hepatocytes. Nature of the assay: Western blot of insulin signaling in primary mouse hepatocytes. The format is cell-based. As to conditions: 500 nM, 1 h. As to the method: MLN4924 enhances hepatocyte insulin responsiveness by delaying feedback IRS degradation (related to FIG. 18A). Cells were serum starved for 16 h then pre-treated with 500 nM MLN4924 for 1 h followed by 100 nM insulin stimulation in time course. Blots are representative of 2 independent experiments.
AML12 cells were a generous gift from Dr. Yanqiao Zhang (Northeast Ohio Medical University). AML12 cells were cultured in DMEM medium supplemented with a mixture of insulin-transferrin-selenium (#41400-045, ThermoFisher, Waltham, MA). For experiments, cells were cultured in serum free medium overnight before various treatments were initiated. The siGENOME SMARTpool siRNA and siControl were purchased from Dharmacon, Inc. (Lafayette, CO). The siRNA was transfected with Lipofectamine RNAiMAX reagent in a final concentration of 25 nM recommended by the manufacturer. Primary human hepatocytes and primary mouse hepatocytes were obtained from the Cell Isolation Core at the University of Kansas Medical Center. Treatments were initiated on the same day of isolation and completed within 24 hours.

With `NS(=O)(=O)OC[C@@H]1C[C@@H](n2ccc3c(N[C@H]4CCc5ccccc54)ncnc32)C[C@@H]1O` [MLN4924, ((1S,2S,4R)-4-(4-((1S)-2,3-dihydro-1H-inden-1-ylamino)-7H-pyrrolo[2,3-d]pyrimidin-7-yl)-2-hydroxycyclopentyl) methyl sulfamate], the “peak blood glucose at 30 minutes post pyruvate challenge” value in the assay on male C57BL/6J mice (vs vehicle) is “significantly lower”. Also, in the assay on male C57BL/6J mice (4-week WD-fed mice), the “blood glucose excursion / hepatic glucose production in PTT” value was “significantly lower”. Also, the “blood glucose excursion / hepatic glucose production in PTT” value in the assay on male C57BL/6J mice (4-week chow-fed mice) is reported as “significantly lower; also recorded: significantly reduced hepatic glucose production”. Besides, in assay [1] (500 nM MLN4924, 7 hrs), the neddylation inhibition entry is recorded as “strong neddylation inhibition”. Also, in assay [1] (500 nM MLN4924, 2.5 mM glucose), the basal insulin secretion result is given as “did not affect”. The glucose-stimulated insulin secretion entry in assay [1] (500 nM MLN4924, 12 mM glucose) was “did not affect”. In assay [2] (then 100 nM insulin), the IRS protein abundance result is “increased IRS protein abundance”; the “insulin-stimulated AKT activation” value was “increased IRS protein abundance and insulin-stimulated AKT activation”. The insulin signaling desensitization result in assay [2] (then 100 nM insulin in time course) is recorded as “significantly delayed cellular insulin desensitization; also recorded: significantly delayed insulin signaling desensitization”.
